In article PMC8320107 (ACS Omega, 2021):
Where two headings read alike, the source gives them in different places.

Molecular target: AChE (Homo sapiens, UniProt P22303)
Assay: In vitro AChE inhibitory activity, Ellman's colorimetric method
Type: biochemical
Settings: for relative potency (%): AChE inhibitory potency relative to donepezil hydrochloride (100)
[1] = in vitro AChE inhibition, mean ± standard error of the mean of three experiments

Sequence of AChE (P22303 32-614): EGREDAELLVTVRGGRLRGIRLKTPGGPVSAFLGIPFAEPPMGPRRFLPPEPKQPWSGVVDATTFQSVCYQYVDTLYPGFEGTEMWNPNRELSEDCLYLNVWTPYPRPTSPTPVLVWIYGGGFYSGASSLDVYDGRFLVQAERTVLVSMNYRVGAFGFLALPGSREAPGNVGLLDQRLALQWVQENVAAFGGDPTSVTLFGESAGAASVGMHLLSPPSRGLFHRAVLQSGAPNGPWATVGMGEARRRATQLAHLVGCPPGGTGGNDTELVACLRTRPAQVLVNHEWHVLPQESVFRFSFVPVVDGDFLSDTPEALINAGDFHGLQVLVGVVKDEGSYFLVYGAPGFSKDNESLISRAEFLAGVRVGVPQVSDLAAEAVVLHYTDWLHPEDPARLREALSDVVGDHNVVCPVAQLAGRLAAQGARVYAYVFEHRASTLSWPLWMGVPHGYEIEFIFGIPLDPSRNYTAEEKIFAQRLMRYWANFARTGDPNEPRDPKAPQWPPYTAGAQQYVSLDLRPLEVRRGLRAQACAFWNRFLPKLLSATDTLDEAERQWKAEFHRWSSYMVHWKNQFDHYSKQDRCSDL

Structure (SMILES)	IC50	relative potency (%)	IC50 [1]
COc1ccc(-c2csc(N3C(=O)CSC3=NCc3ccccc3)n2)cc1 [Compound 31, 2-Benzylimino-3-[4-(4-methoxyphenyl)thiazol-2-yl]thiazolidin-4-one]	0.152 ± 0.0041 µM	36.08%	–
CCN=C1SCC(=O)N1c1nc(-c2ccc(OC)cc2)cs1 [Compound 30, 2-Ethylimino-3-[4-(4-methoxyphenyl)thiazol-2-yl]thiazolidin-4-one]	0.346 ± 0.0094 µM	–	–
COc1ccc(-c2csc(N3C(=O)C(=Cc4ccc(Cl)cc4Cl)SC3=NCc3ccccc3)n2)cc1 [Compound 33, 2-(Benzylimino)-5-(2,4-dichlorobenzylidene)-3-[4-(4-methoxyphenyl)thiazol-2-yl]thiazolidin-4-one]	0.188 ± 0.0051 µM	29.27%	–
CCN=C1SCC(=O)N1c1nc(-c2ccc(C)cc2)cs1 [Compound 28, 2-Ethylimino-3-[4-(p-tolyl)thiazol-2-yl]thiazolidin-4-one]	0.478 ± 0.013 µM	–	–
COc1ccc(-c2csc(NC3=NC(=O)C(=Cc4ccc(Cl)cc4Cl)S3)n2)cc1 [Compound 19, 2-[4-(4-Methoxyphenylthiazol-2-yl)amino]-5-(2,4-dichlorobenzylidene)-4,5-dihydrothiazole-4-one]	–	–	0.731 ± 0.02 µM
Cc1ccc(-c2csc(NC3=NC(=O)C(=Cc4ccc(Br)s4)S3)n2)cc1 [Compound 14, 2-[4-(p-Tolylthiazol-2-yl)amino]-5-[(5-bromothiophen-2-yl)methylene]-4,5-dihydrothiazole-4-one]	–	–	0.38 ± 0.01 µM
COc1ccc(-c2csc(NC3=NC(=O)C(=Cc4ccc(OC)c(OC)c4)S3)n2)cc1 [Compound 17, 2-[4-(4-Methoxyphenylthiazol-2-yl)amino]-5-(3,4-dimethoxybenzylidene)-4,5-dihydrothiazole-4-one]	–	31.26%	0.176 ± 0.0048 µM
COc1ccc(-c2csc(N3C(=O)C(=Cc4ccc(OC)c(OC)c4)SC3=NCc3ccccc3)n2)cc1 [Compound 32, 2-(Benzylimino)-5-(3,4-dimethoxybenzylidene)-3-[4-(4-methoxyphenyl)thiazol-2-yl]thiazolidin-4-one]	0.45 ± 0.012 µM	–	–
Cc1ccc(-c2csc(N3C(=O)CSC3=NCc3ccccc3)n2)cc1 [Compound 29, 2-Benzylimino-3-[4-(p-tolyl)thiazol-2-yl]thiazolidin-4-one]	0.188 ± 0.0051 µM	–	–
Cc1ccc(-c2csc(NC3=NC(=O)C(=Cc4ccc(Cl)cc4Cl)S3)n2)cc1 [Compound 12, 2-[4-(p-Tolylthiazol-2-yl)amino]-5-(2,4-dichlorobenzylidene)-4,5-dihydrothiazole-4-one]	–	–	0.336 ± 0.0091 µM
Cc1ccc(C=C2SC(Nc3nc(-c4ccc(C)cc4)cs3)=NC2=O)cc1 [Compound 8, 2-[4-(p-Tolylthiazol-2-yl)amino]-5-(4-methylbenzylidene)-4,5-dihydrothiazole-4-one]	–	–	0.501 ± 0.014 µM
COc1ccc(-c2csc(NC3=NC(=O)C(=Cc4ccc(Cl)cc4)S3)n2)cc1 [Compound 18, 2-[4-(4-Methoxyphenylthiazol-2-yl)amino]-5-(4-chlorobenzylidene)-4,5-dihydrothiazole-4-one]	–	28.43%	0.193 ± 0.0053 µM
COc1ccc(-c2csc(NC3=NC(=O)C(=Cc4ccc(C)cc4)S3)n2)cc1 [Compound 15, 2-[4-(4-Methoxyphenylthiazol-2-yl)amino]-5-(4-methylbenzylidene)-4,5-dihydrothiazole-4-one]	–	–	0.375 ± 0.01 µM
COc1ccc(-c2csc(NC3=NC(=O)C(=Cc4ccc(Br)s4)S3)n2)cc1 [Compound 21, 2-[4-(4-Methoxyphenylthiazol-2-yl)amino]-5-[(5-bromothiophen-2-yl)methylene]-4,5-dihydrothiazole-4-one]	–	29.28%	0.188 ± 0.0051 µM
COc1ccc(-c2csc(NC3=NC(=O)C(=Cc4cccs4)S3)n2)cc1 [Compound 20, 2-[4-(4-Methoxyphenylthiazol-2-yl)amino]-5-[(thiophen-2-yl)methylene]-4,5-dihydrothiazole-4-one]	–	–	0.26 ± 0.0071 µM
